Type in all cases: functional
Test [1] has as its system Mycobacterium tuberculosis variant bovis BCG. As to the kind of experiment: Antibacterial activity against Mycobacterium bovis BCG Tokyo after 18 hrs by agar plate dilution method.
Test [2] deals with Mycobacterium tuberculosis. As to the kind of experiment: Antibacterial activity against isoniazid-resistant Mycobacterium tuberculosis H37Rv after 18 hrs by agar plate dilution method.
Test [3] has as its system Mycobacterium tuberculosis. As to the kind of experiment: Antibacterial activity against rifampicin-resistant Mycobacterium tuberculosis H37Rv after 18 hrs by agar plate dilution method.

Values after ≈ are worked out from the molar mass of the structure shown.

What is called MIC is the smallest concentration in the dilution series that meets the test's criterion for growth inhibition. Higher therefore signals a need for much substance. As to `NNC(=O)c1ccncc1` [ISONIAZID], the MIC in test [1] is 0.1 µg/mL (≈ 0.729 µM); in test [2], > 25 µg/mL; in test [3], 0.05 µg/mL (≈ 0.365 µM).
The matching figures for `CO[C@H]1/C=C/O[C@@]2(C)Oc3c(C)c(O)c4c(O)c(c(/C=N/N5CCN(C)CC5)c(O)c4c3C2=O)NC(=O)/C(C)=C\C=C\[C@H](C)[C@H](O)[C@@H](C)[C@@H](O)[C@@H](C)[C@H](OC(C)=O)[C@@H]1C` [RIFAMPIN]: 0.1 µg/mL (≈ 0.122 µM), 0.2 µg/mL (≈ 0.243 µM) and > 25 µg/mL.
For `C=CCN(C)CCCCCCCCOc1ccc(C(=O)c2ccc(Cl)cc2)c(O)c1`, in that order: 3.1 µg/mL (≈ 7.21 µM), 1.5 µg/mL (≈ 3.49 µM) and 1.5 µg/mL (≈ 3.49 µM).
